# Experimental data published in US20080039362A1, “Combination drug therapy for reducing scar tissue formation” (Afmedica, Inc., priority 2006, published 2008).
# Assays:
# Human platelets = test: Platelet adhesion and aggregation on surfaces; format: cell-based; settings: 30 minutes exposure; FIG. 21
# Procedure: Platelet aggregation, used as a marker of polymer hemocompatibility, was visualized using human platelets that were exposed to PEA and a fibrinogen-coated surface for 30 minutes.
# [1] = test system: Human coronary artery endothelial cells (EC)
# Procedure: Human peripheral blood monocytes were isolated by density centrifugation and magnetic separation (Miltenyi). Human platelets were purchased from the San Diego Blood Bank. Human coronary artery endothelial cells and aortic smooth muscle cells were purchased from Cambrex. Tissue culture polystyrene plates (TCPS; Falcon) with or without fibronectin coating (1 mg/ml) were used as controls.
# Human coronary artery endothelial cells (EC) and aortic smooth muscle cells (SMC) were incubated on the polymers for 72 hours.
Substance,platelet adhesion and aggregation (Human platelets),toxic effects [1]
fibrinogen,aggregated as expected,
poly(ester amide) [PEA],,no toxic effects
